Test results reported in patent US20260297113A1, “DIAZABICYCLOOCTANE INHIBITORS OF KRAS(G12D) AND USES” (Ranok Therapeutics (Hangzhou) Co. Ltd., priority 2023, published 2026).
Like-named read-outs stand apart in the source and are kept apart here.

What was measured:
Assay type in all cases: cell-based
AGS cells = test: AGS cell proliferation (CellTiter-Glo); conditions: AGS gastric carcinoma [heterozygous G12D], 72 hr, 0.5% DMSO, read-out: CTG(IC50) ABS-72 H(nM) AGS
Description: The following cancer cell lines were employed: AGS gastric carcinoma [heterozygous G12D](ATCC, CRL-1739); A-427 lung carcinoma [heterozygous G12D](ATCC, HTB-53); ASPC1 pancreatic adenocarcinoma [homozygous G12D](ATCC, CRL-1682) and SW 1990 pancreatic adenocarcinoma [homozygous G12D](ATCC CRL-2172). Cell lines were cultured essentially according to ATCC recommendations.
(§1) AGS, A-427, ASPC1, SW 1990, and GP2D cells were plated in 96-well tissue culture plates at 4,000 cells/well and incubated at 37° […] for 72 hr in 100 μl of media. 3-old serial dilutions of each test compound were prepared ranging from 20 μM to 1.02 nM. Each cell line was then treated with test compounds at various concentrations with a final concentration of 0.5% DMSO/well, and then incubated at 37° C./5% CO2 for 72 hr. 100 μl of CellTiter-Glo® Reagent (Promega Corporation, Madison, WI) was added to each well and processed according manufacturer's protocol. Results were analyzed and IC50 values were calculated in GraphPad 7 software. AGS proliferation assay: A. EC50<100 nM; B. EC50=100-1000 nM; C. EC50>1000 nM; GP2D proliferation assay: A. EC50<100 nM; B. EC50=100-1000 nM; C. EC50>1000 nM; MKN1 proliferation assay: A. EC50<100 nM; B. EC50=100-1000 nM; C. EC50>1000 nM;

GP2D cells = test: GP2D cell proliferation (CellTiter-Glo); conditions: 72 hr, 0.5% DMSO, read-out: CTG(IC50) ABS-72 H(nM) GP2D
Description: as §1

MKN1 cells = test: MKN1 cell proliferation (CellTiter-Glo); conditions: 0.5% DMSO, read-out: CTG(IC50) ABS-72 H(nM) MKN1
Description: as §1

Compound	IC50 (AGS cells)	IC50 (MKN1 cells; 72 hr)	IC50 (AGS cells; Homo sapiens)	IC50 (MKN1 cells; Homo sapiens, MKN-1, 72 hr)	IC50 (GP2D cells)
2-(3-(2-[(1-(3-azabicyclo[3.1.0]hexan-3-ylmethylcyclopropyl) methoxy]-7-(8-ethynyl-7-fluoro-3-hydroxynaphthalen-1-yl)-8-fluoro-5-methoxypyrido[4,3-d]pyrimidin-4-yl-3,8-diazabicyclo[3.2.1]octan-8-yl)acetonitrile [Compound 1]	< 100 nM	> 1000 nM	–	–	< 100 nM
C#Cc1c(F)ccc2cc(O)cc(-c3nc(OC)c4c(N5CC6CCC(C5)N6C(=O)C#N)nc(OCC5(CN6CC7CC7C6)CC5)nc4c3F)c12 (centres unmarked) [Compound 2]	–	–	< 100 nM	100 to 1000 nM	< 100 nM
C#Cc1c(F)ccc2cc(O)cc(-c3nc(OC)c4c(N5CC6CCC(C5)N6CCC#N)nc(OCC5(CN6CC7CC7C6)CC5)nc4c3F)c12 (centres unmarked) [Compound 3]	–	–	100 to 1000 nM	> 1000 nM	< 100 nM
C#Cc1c(F)ccc2cc(O)cc(-c3nc(OC)c4c(N5CC6CCC(C5)N6CC(F)(F)F)nc(OCC5(CN6CC7CC7C6)CC5)nc4c3F)c12 (centres unmarked) [Compound 4]	–	–	> 1000 nM	> 1000 nM	100 to 1000 nM
C#Cc1c(F)ccc2cc(O)cc(-c3nc(OC)c4c(N5CC6CCC(C5)N6CCOC)nc(OCC5(CN6CC7CC7C6)CC5)nc4c3F)c12 (centres unmarked) [Compound 5]	–	–	100 to 1000 nM	> 1000 nM	< 100 nM
C#Cc1c(F)ccc2cc(O)cc(-c3nc(OC)c4c(N5CC6CCC(C5)N6CCO)nc(OCC5(CN6CC7CC7C6)CC5)nc4c3F)c12 (centres unmarked) [Compound 6]	–	–	100 to 1000 nM	100 to 1000 nM	< 100 nM
C#Cc1c(F)ccc2cc(O)cc(-c3nc(OC)c4c(N5CC6CCC(C5)N6CCCO)nc(OCC5(CN6CC7CC7C6)CC5)nc4c3F)c12 (centres unmarked) [Compound 7]	–	–	100 to 1000 nM	100 to 1000 nM	< 100 nM
C#Cc1c(F)ccc2cc(O)cc(-c3nc(OC)c4c(N5CC6CCC(C5)N6CC#N)nc(OC[C@]56CCCN5C[C@@H](F)C6)nc4c3F)c12 [Compound 8]	–	–	< 100 nM	> 1000 nM	< 100 nM
C#CCN1C2CCC1CN(c1nc(OCC3(CN4CC5CC5C4)CC3)nc3c(F)c(-c4cc(O)cc5ccc(F)c(C#C)c45)nc(OC)c13)C2 (centres unmarked) [Compound 9]	–	–	< 100 nM	> 1000 nM	< 100 nM
[2H]C([2H])([2H])Oc1nc(-c2cc(O)cc3ccc(F)c(C#C)c23)c(F)c2nc(OCC3(CN4CC5CC5C4)CC3)nc(N3CC4CCC(C3)N4C#N)c12 (centres unmarked) [Compound 10]	–	–	100 to 1000 nM	100 to 1000 nM	< 100 nM

Now from value to compound, other results behind:

IC50 (AGS cells)	IC50 (MKN1 cells; 72 hr)	IC50 (AGS cells; Homo sapiens)	IC50 (MKN1 cells; Homo sapiens, MKN-1, 72 hr)	Compound	IC50 (GP2D cells)
–	–	< 100 nM	100 to 1000 nM	[2H]C([2H])([2H])Oc1nc(-c2cc(O)cc3ccc(F)c(C#C)c23)c(F)c2nc(OCC3(CN4CC5CC5C4)CC3)nc(N3CC4CCC(C3)N4CC#N)c12 (centres unmarked) [Compound 11]	< 100 nM
–	–	< 100 nM	> 1000 nM	C#Cc1c(F)ccc2cc(O)cc(-c3nc(OC)c4c(N5CC6CCC(C5)N6CC(C)=O)nc(OCC5(CN6CC7CC7C6)CC5)nc4c3F)c12 (centres unmarked) [Compound 12]	< 100 nM
–	–	100 to 1000 nM	> 1000 nM	C#Cc1c(F)ccc2cc(O)cc(-c3nc(OC)c4c(N5CC6CCC(C5)N6CC(F)F)nc(OCC5(CN6CC7CC7C6)CC5)nc4c3F)c12 (centres unmarked) [Compound 13]	100 to 1000 nM
–	–	< 100 nM	100 to 1000 nM	C#Cc1c(F)ccc2cc(O)cc(-c3nc(OC)c4c(N5CC6CCC(C5)N6CCCC#N)nc(OCC5(CN6CC7CC7C6)CC5)nc4c3F)c12 (centres unmarked) [Compound 14]	< 100 nM
–	–	100 to 1000 nM	> 1000 nM	C#Cc1c(F)ccc2cc(O)cc(-c3nc(OC)c4c(N5CC6CCC(C5)N6C(C)CCC#N)nc(OCC5(CN6CC7CC7C6)CC5)nc4c3F)c12 (centres unmarked) [Compound 15]	> 1000 nM
–	–	> 1000 nM	> 1000 nM	C#Cc1c(F)ccc2cc(O)cc(-c3nc(OC)c4c(N5CC6CCC(C5)N6CCC(=O)O)nc(OCC5(CN6CCC(F)CC6)CC5)nc4c3F)c12 [Compound 16]	100 to 1000 nM
–	–	100 to 1000 nM	> 1000 nM	C#Cc1c(F)ccc2cc(O)cc(-c3nc(OC)c4c(N5CC6CCC(C5)N6CCCF)nc(OCC5(CN6CCC(F)CC6)CC5)nc4c3F)c12 [Compound 17]	< 100 nM
–	–	> 1000 nM	> 1000 nM	C#Cc1c(F)ccc2cc(O)cc(-c3nc(OC)c4c(N5CC6CCC(C5)N6CC(=O)O)nc(OCC5(CN6CCC(F)CC6)CC5)nc4c3F)c12 [Compound 18]	–
